Test results: patent EP0726263A2, “Herbicidal (1,3,4)oxadiazoles and thiadiazoles” (American Cyanamid Company, priority 1995, dated 1996)

Assays:
Format in all cases: in vivo
Glycine max [1] = experiment: Herbicidal activity, preemergence test; conditions: pre; sprayed onto soil, 800 g of active material per hectare; evaluated 3 weeks after treatment
Procedure: (§1) To evaluate their herbicidal activity, compounds according to the invention are tested using a representative range of plants: TRZAW Triticum aestivum HORVW Hordeum vulgare ZEAMX Zea mays GOSHI Gossypium hirsutum HELAN Helianthus annuus GLYMA Glycine max ALOMY Alopecurus myosuroides SETVI Setaria viridis ECHCG Echinochloa crus-galli GALAP Galium aparine STEME Stellaria media VERPE Veronica persica VIOAR Viola arvensis IPOHE Ipomoea hederacea LAMPU Lamium purpureum PAPRH Papaver rhoeas MATIN Matricaria inodora AMARE Amaranthus retroflexus ABUTH Abutilon theophrasti AMBEL Ambrosia artemisifolia CHEAL Chenopodium album
(§2) The tests fall into two categories, preemergence and postemergence. The preemergence tests involve spraying a liquid formulation of the compound onto the soil in which the seeds have recently been sown. The postemergence tests involve spraying a liquid formulation of the compound onto seedling plants.
(§3) The soil used in the tests is a prepared horticultural loam.
(§4) The formulations used in the tests are prepared from solutions of the test compounds in acetone containing 0.4% by weight of an alkylphenol/ethylene oxide condensate available under the trade mark TRITON X-155. These acetone solutions are diluted with water and the resulting formulations applied at dosage levels corresponding to 800 g of active material per hectare in a volume equivalent to 900 litres per hectare.
(§5) In the preemergence tests untreated sown soil and in the postemergence tests untreated soil bearing seedling plants are used as controls.
(§6) Results of herbicide evaluation are expressed on a rating scale (0-9). The scale is based upon a visual observation of plant stand, vigor, malformation, size, chlorosis, and general plant appearance as compared to a control. Preemergence and postemergence treatments are evaluated at 3 and 2 weeks after treatment, respectively.

Stellaria media [2] = experiment: Herbicidal activity, preemergence test; conditions: pre; sprayed onto soil, 800 g of active material per hectare; evaluated 3 weeks after treatment
Procedure: as §1, §2, §3, §4, §5, §6

Veronica persica [3] = experiment: Herbicidal activity, preemergence test; conditions: pre; sprayed onto soil, 800 g of active material per hectare; evaluated 3 weeks after treatment
Procedure: as §1, §2, §3, §4, §5, §6

Alopecurus myosuroides [4] = experiment: Herbicidal activity, preemergence test; conditions: pre; sprayed onto soil, 800 g of active material per hectare; evaluated 3 weeks after treatment
Procedure: as §1, §2, §3, §4, §5, §6

Gossypium hirsutum [5] = experiment: Herbicidal activity, preemergence test; conditions: pre; sprayed onto soil, 800 g of active material per hectare; evaluated 3 weeks after treatment
Procedure: as §1, §2, §3, §4, §5, §6

Ambrosia artemisifolia [6] = experiment: Herbicidal activity, preemergence test; conditions: pre; sprayed onto soil, 800 g of active material per hectare; evaluated 3 weeks after treatment
Procedure: as §1, §2, §3, §4, §5, §6

Abutilon theophrasti [7] = experiment: Herbicidal activity, preemergence test; conditions: pre; sprayed onto soil, 800 g of active material per hectare; evaluated 3 weeks after treatment
Procedure: as §1, §2, §3, §4, §5, §6

Triticum aestivum [8] = experiment: Herbicidal activity, preemergence test; conditions: pre; sprayed onto soil, 800 g of active material per hectare; evaluated 3 weeks after treatment
Procedure: as §1, §2, §3, §4, §5, §6

Amaranthus retroflexus [9] = experiment: Herbicidal activity, preemergence test; conditions: pre; sprayed onto soil, 800 g of active material per hectare; evaluated 3 weeks after treatment
Procedure: as §1, §2, §3, §4, §5, §6

Setaria viridis [10] = experiment: Herbicidal activity, preemergence test; conditions: pre; sprayed onto soil, 800 g of active material per hectare; evaluated 3 weeks after treatment
Procedure: as §1, §2, §3, §4, §5, §6

Lamium purpureum [11] = experiment: Herbicidal activity, preemergence test; conditions: pre; sprayed onto soil, 800 g of active material per hectare; evaluated 3 weeks after treatment
Procedure: as §1, §2, §3, §4, §5, §6

Matricaria inodora [12] = experiment: Herbicidal activity, preemergence test; conditions: pre; sprayed onto soil, 800 g of active material per hectare; evaluated 3 weeks after treatment
Procedure: as §1, §2, §3, §4, §5, §6

Galium aparine [13] = experiment: Herbicidal activity, preemergence test; conditions: pre; sprayed onto soil, 800 g of active material per hectare; evaluated 3 weeks after treatment
Procedure: as §1, §2, §3, §4, §5, §6

Hordeum vulgare [14] = experiment: Herbicidal activity, preemergence test; conditions: pre; sprayed onto soil, 800 g of active material per hectare; evaluated 3 weeks after treatment
Procedure: as §1, §2, §3, §4, §5, §6

Papaver rhoeas [15] = experiment: Herbicidal activity, preemergence test; conditions: pre; sprayed onto soil, 800 g of active material per hectare; evaluated 3 weeks after treatment
Procedure: as §1, §2, §3, §4, §5, §6

Zea mays [16] = experiment: Herbicidal activity, preemergence test; conditions: pre; sprayed onto soil, 800 g of active material per hectare; evaluated 3 weeks after treatment
Procedure: as §1, §2, §3, §4, §5, §6

Chenopodium album [17] = experiment: Herbicidal activity, preemergence test; conditions: pre; sprayed onto soil, 800 g of active material per hectare; evaluated 3 weeks after treatment
Procedure: as §1, §2, §3, §4, §5, §6

Ipomoea hederacea [18] = experiment: Herbicidal activity, preemergence test; conditions: pre; sprayed onto soil, 800 g of active material per hectare; evaluated 3 weeks after treatment
Procedure: as §1, §2, §3, §4, §5, §6

Glycine max [19] = experiment: Herbicidal activity, postemergence test; conditions: post; sprayed onto seedling plants, 800 g of active material per hectare; evaluated 2 weeks after treatment
Procedure: as §1, §2, §3, §4, §5, §6

Stellaria media [20] = experiment: Herbicidal activity, postemergence test; conditions: post; sprayed onto seedling plants, 800 g of active material per hectare; evaluated 2 weeks after treatment
Procedure: as §1, §2, §3, §4, §5, §6

Veronica persica [21] = experiment: Herbicidal activity, postemergence test; conditions: post; sprayed onto seedling plants, 800 g of active material per hectare; evaluated 2 weeks after treatment
Procedure: as §1, §2, §3, §4, §5, §6

Alopecurus myosuroides [22] = experiment: Herbicidal activity, postemergence test; conditions: post; sprayed onto seedling plants, 800 g of active material per hectare; evaluated 2 weeks after treatment
Procedure: as §1, §2, §3, §4, §5, §6

Gossypium hirsutum [23] = experiment: Herbicidal activity, postemergence test; conditions: post; sprayed onto seedling plants, 800 g of active material per hectare; evaluated 2 weeks after treatment
Procedure: as §1, §2, §3, §4, §5, §6

Ambrosia artemisifolia [24] = experiment: Herbicidal activity, postemergence test; conditions: post; sprayed onto seedling plants, 800 g of active material per hectare; evaluated 2 weeks after treatment
Procedure: as §1, §2, §3, §4, §5, §6

Abutilon theophrasti [25] = experiment: Herbicidal activity, postemergence test; conditions: post; sprayed onto seedling plants, 800 g of active material per hectare; evaluated 2 weeks after treatment
Procedure: as §1, §2, §3, §4, §5, §6

Triticum aestivum [26] = experiment: Herbicidal activity, postemergence test; conditions: post; sprayed onto seedling plants, 800 g of active material per hectare; evaluated 2 weeks after treatment
Procedure: as §1, §2, §3, §4, §5, §6

Amaranthus retroflexus [27] = experiment: Herbicidal activity, postemergence test; conditions: post; sprayed onto seedling plants, 800 g of active material per hectare; evaluated 2 weeks after treatment
Procedure: as §1, §2, §3, §4, §5, §6

Setaria viridis [28] = experiment: Herbicidal activity, postemergence test; conditions: post; sprayed onto seedling plants, 800 g of active material per hectare; evaluated 2 weeks after treatment
Procedure: as §1, §2, §3, §4, §5, §6

Lamium purpureum [29] = experiment: Herbicidal activity, postemergence test; conditions: post; sprayed onto seedling plants, 800 g of active material per hectare; evaluated 2 weeks after treatment
Procedure: as §1, §2, §3, §4, §5, §6

Matricaria inodora [30] = experiment: Herbicidal activity, postemergence test; conditions: post; sprayed onto seedling plants, 800 g of active material per hectare; evaluated 2 weeks after treatment
Procedure: as §1, §2, §3, §4, §5, §6

Galium aparine [31] = experiment: Herbicidal activity, postemergence test; conditions: post; sprayed onto seedling plants, 800 g of active material per hectare; evaluated 2 weeks after treatment
Procedure: as §1, §2, §3, §4, §5, §6

Hordeum vulgare [32] = experiment: Herbicidal activity, postemergence test; conditions: post; sprayed onto seedling plants, 800 g of active material per hectare; evaluated 2 weeks after treatment
Procedure: as §1, §2, §3, §4, §5, §6

Papaver rhoeas [33] = experiment: Herbicidal activity, postemergence test; conditions: post; sprayed onto seedling plants, 800 g of active material per hectare; evaluated 2 weeks after treatment
Procedure: as §1, §2, §3, §4, §5, §6

Zea mays [34] = experiment: Herbicidal activity, postemergence test; conditions: post; sprayed onto seedling plants, 800 g of active material per hectare; evaluated 2 weeks after treatment
Procedure: as §1, §2, §3, §4, §5, §6

Chenopodium album [35] = experiment: Herbicidal activity, postemergence test; conditions: post; sprayed onto seedling plants, 800 g of active material per hectare; evaluated 2 weeks after treatment
Procedure: as §1, §2, §3, §4, §5, §6

Ipomoea hederacea [36] = experiment: Herbicidal activity, postemergence test; conditions: post; sprayed onto seedling plants, 800 g of active material per hectare; evaluated 2 weeks after treatment
Procedure: as §1, §2, §3, §4, §5, §6

C[C@H](NC(=O)c1nnc(-c2ccccc2Cl)o1)c1ccccc1 [Example 21]
GLXMA control rating (0-9) (Glycine max [1]): 0 (no effect) | STEME control rating (0-9) (Stellaria media [2]): 5 (definite injury) | VERPE control rating (0-9) (Veronica persica [3]): 9 (complete kill) | ALOMY control rating (0-9) (Alopecurus myosuroides [4]): 0 (no effect) | GOSHI control rating (0-9) (Gossypium hirsutum [5]): 0 (no effect) | AMBEL control rating (0-9) (Ambrosia artemisifolia [6]): 0 (no effect) | ABUTH control rating (0-9) (Abutilon theophrasti [7]): 0 (no effect) | TRZAW control rating (0-9) (Triticum aestivum [8]): 0 (no effect) | AMARE control rating (0-9) (Amaranthus retroflexus [9]): 3 (moderate effect) | SETVI control rating (0-9) (Setaria viridis [10]): 1 (trace effect) | LAMPU control rating (0-9) (Lamium purpureum [11]): 5 (definite injury) | MATIN control rating (0-9) (Matricaria inodora [12]): 6 (herbicidal effect) | GALAP control rating (0-9) (Galium aparine [13]): 0 (no effect) | HORVW control rating (0-9) (Hordeum vulgare [14]): 0 (no effect) | PAPRH control rating (0-9) (Papaver rhoeas [15]): 9 (complete kill) | ZEAMX control rating (0-9) (Zea mays [16]): 0 (no effect) | CHEAL control rating (0-9) (Chenopodium album [17]): 2 (slight effect) | IPOHE control rating (0-9) (Ipomoea hederacea [18]): 1 (trace effect) | GLXMA control rating (0-9) (Glycine max [19]): 2 (slight effect) | STEME control rating (0-9) (Stellaria media [20]): 9 (complete kill) | VERPE control rating (0-9) (Veronica persica [21]): 7 (good herbicidal effect) | ALOMY control rating (0-9) (Alopecurus myosuroides [22]): 0 (no effect) | GOSHI control rating (0-9) (Gossypium hirsutum [23]): 8 (approaching complete kill) | AMBEL control rating (0-9) (Ambrosia artemisifolia [24]): 6 (herbicidal effect) | ABUTH control rating (0-9) (Abutilon theophrasti [25]): 5 (definite injury) | TRZAW control rating (0-9) (Triticum aestivum [26]): 2 (slight effect) | AMARE control rating (0-9) (Amaranthus retroflexus [27]): 8 (approaching complete kill) | SETVI control rating (0-9) (Setaria viridis [28]): 6 (herbicidal effect) | LAMPU control rating (0-9) (Lamium purpureum [29]): 6 (herbicidal effect) | MATIN control rating (0-9) (Matricaria inodora [30]): 4 (injury) | GALAP control rating (0-9) (Galium aparine [31]): 4 (injury) | HORVW control rating (0-9) (Hordeum vulgare [32]): 1 (trace effect) | PAPRH control rating (0-9) (Papaver rhoeas [33]): 5 (definite injury) | ZEAMX control rating (0-9) (Zea mays [34]): 2 (slight effect) | CHEAL control rating (0-9) (Chenopodium album [35]): 7 (good herbicidal effect) | IPOHE control rating (0-9) (Ipomoea hederacea [36]): 4 (injury)
